Experimental data from US20130136809A1, “7-HYRDROXYFRULLANOLIDE ITS ANALOGS FOR PREVENTION CONTROL AND TREATMENT OF METABOLIC DISORDERS” (LAILA NUTRACEUTICALS, priority 2009, published 2013).

Key:
[1] = test system: human endothelial cells; assay: Nitrite assay (Griess reagent), nitric oxide production; format: cell-based; conditions: 0.1, 0.25, 0.50, 1.00 ng/ml; 24 h
Protocol: Equal number (5000 cells) of human endothelial cells was plated in each well of a 96-well cell culture plate. The cells were treated with various concentrations (0.1, 0.25, 0.5 and 1.0 ng/ml) of 7-HF for 24 h. The control cultures received 0.01% (v/v) DMSO as the vehicle. After 24 h, the culture supernatants were collected and mixed with equal volume of Griess reagent [1:1 mixture of NED solution (0.1% N-1-napthylethulenediamine dihydrochloride in water) and Sulfanylamide solution (1% sulfanilamide in 5% phosphoric acid)]. The reaction was allowed for 10 min at room temperature. Finally, the color reaction was read at 550 nm in a micro-plate reader (BioRad, USA). Known concentrations of sodium nitrite were reacted to obtain a standard curve. Modulation of nitrite production in 7-HF treated cultures was quantitatively assessed by extrapolating the absorbance readings obtained from the test samples into the standard plot.

[2] = test system: CD36; assay: Immunoblot of CD36 expression in 3T3-L1 adipocytes; format: cell-based, mouse; conditions: 1 ug/ml; normalized with actin
Protocol: (§1) Experimental protocol: Mouse pre-adipocyte 3T3-L1 cells are maintained in Dulbecco's Modified Eagles Medium (DMEM) supplemented with 2 mM glutamine, 4.5 g/L glucose and 10% fetal bovine serum. Equal number of cells was plated in each well of 24-well culture plates. Cells were pre-treated separately with 1 μg/mL 7-hydroxyfrullanolide for 2 h and followed by addition of differentiation medium containing 500 nM insulin, 1.0 μM dexamethasone, and 0.5 mM isobutylmethylxanthine (IBMX) for 48 h. Thereafter, cells were further incubated with post differentiation medium (DMEM containing 100 nM insulin) in presence or absence of 7-HF. […] Protein content was measured in Bradford method by using Coomassie blue dye and cell lysates were stored in aliquots at −80° C. until further use. The modulation of adipocyte differentiation markers such as Peroxisome proliferator-activated receptor gamma (PPARγ), CD36, adipocyte fatty acid binding protein (aP2); and intracellular lipid droplet surface associated protein, perilipin expression were evaluated by immunoblot assay.
(§2) Inhibition of protein expression of biomarker molecules adipocytes in presence or absence of 7-hydroxyfrullanolide (7-HF) was evaluated in immunoblot assay. […] Band intensities were calculated densitometrically and normalized with expression of actin in respective samples.

[3] = test system: PTP-1B; assay: PTP-1B activity in 3T3-L1 cell lysates (pNPP hydrolysis); format: cell-based, mouse; conditions: 1.0 or 2.5 μg/ml; 48 h
Protocol: Equal number of 3T3-L1 mouse preadipocytes was seeded into cell culture dishes. After 24 h, the cells were treated either with different concentrations of 7-HF or […] Sodium vanadate ([…]) for further 48 h. Thereafter, the washed cells were lysed with cell lysis buffer and the clarified at 14,000 g for 10 min at 4° C. The protein concentrations were calculated by Bradford method and the cell lysates were reacted with equal volume of substrate reagent containing 10 mM p-nitrophenyl phosphate (pNPP). After 1 h incubation at 37° C., the reaction was stopped with 1N NaOH and the developed color was read at 405 nm. The specific enzyme activity was calculated by using an extinction coefficient of 1.78×10^4 M^−1cm^−1 for pNPP at A405. The inhibition shown by 7-HF is depicted in Figure VII.

[4] = test system: J774 mouse macrophage cells; assay: Lipid accumulation in high glucose induced macrophage cells (in vitro model of atherosclerosis); format: cell-based; conditions: 1 μg/ml; 600 mg/dL glucose, 5 days
Protocol: Experimental protocol: This was evaluated in glucose induced J774, mouse macrophage cells. Briefly, the cells were cultured in DMEM with 2 mM Glutamine, 100 U/mL penicillin, […] streptomycin and 10% fetal bovine serum (Hyclone, Logan, Utah). Equal number of cells was seeded into 35 mm petri dishes (Corning, USA) one day before the experiment. The culture media was replaced with fresh, glucose free DMEM supplemented with 10% fetal bovine serum. 7-HF was diluted at […] and all cultures were pre-incubated for 2 hours at 5% CO2 at 37° C., and then incubated with 600 mg/dL of glucose for 5 days. Representative photomicrographs showing inhibition of lipid accumulation by 7-HF in high glucose induced macrophage cells of an in vitro model of atherosclerosis are shown in Figure IV. The control culture was supplemented with 100 mg/dL glucose. The cells were harvested and lysed with lysis buffer. Cell lysates were clarified at 14,000 g. Protein concentration was measured by Bradford method.

[5] = test system: ADRP; assay: Immunoblot of ADRP expression in 3T3-L1 adipocytes; format: cell-based, mouse; conditions: 1 ug/ml; normalized with actin
Protocol: as §1, §2

[6] = test system: adiponectin; assay: Western immunoblot of adiponectin in 3T3-L1 adipocytes; format: cell-based, mouse; conditions: 1 μg/ml; 3T3-L1 mature adipocytes
Protocol: as §1
Inhibition of protein expression of biomarker molecules adipocytes in presence or absence of 7-hydroxyfrullanolide (7-HF) was evaluated in immunoblot assay. […] Band intensities were calculated densitometrically and normalized with expression of actin in respective samples. […]

[7] = test system: perilipin; assay: Immunoblot of perilipin expression in 3T3-L1 adipocytes; format: cell-based, mouse; conditions: 1 ug/ml; normalized with actin
Protocol: as §1, §2

Question: What does the source list for `C=C1C(=O)O[C@H]2C3=C(C)CCC[C@]3(C)CC[C@@]12O` [7-HF (1), 7-hydroxyfrullanolide]?
Answer: NO concentration (nitrite) in cell culture supernatant [1]: significant and dose dependent increase; CD36 protein expression [2]: down-regulation; PTP-1B activity [3]: significant inhibition; lipid accumulation in high glucose induced macrophage cells [4]: inhibited lipid accumulation; ADRP protein expression [5]: down-regulation; adiponectin protein expression [6]: potent upregulation; perilipin protein expression [7]: down-regulation
